Like-named read-outs stand apart in the source and are kept apart here.
Legend:
[1] = target: PDE2 (Homo sapiens, UniProt O00408); assay: PDE2 inhibitory activity (protocol as described in WO2017/076900, page 28); format: biochemical; conditions: screening concentration of 10 μM; read-out: PDE2 inhibitory activity, % effect
[2] = target: T1, recombinant human Meningioma Expressed Antigen 5 (MGEA5), also referred to as O-GlcNAcase (OGA) (Homo sapiens, UniProt O60502); assay: OGA biochemical assay: inhibition of FM-GlcNAc hydrolysis, fluorescence (protocol A 10 nM OGA, 1 h; protocol B 2 nM OGA, 6 h); conditions: for Emax: read-out: Enzymatic Emax (%); for IC50: read-out: Enzymatic hOGA, pIC50 (converted)
T1 construct: Full length OGA enzyme was purchased at OriGene (cat # TP322411); purchased OriGene TP322411
T1 sequence (O60502 1-916): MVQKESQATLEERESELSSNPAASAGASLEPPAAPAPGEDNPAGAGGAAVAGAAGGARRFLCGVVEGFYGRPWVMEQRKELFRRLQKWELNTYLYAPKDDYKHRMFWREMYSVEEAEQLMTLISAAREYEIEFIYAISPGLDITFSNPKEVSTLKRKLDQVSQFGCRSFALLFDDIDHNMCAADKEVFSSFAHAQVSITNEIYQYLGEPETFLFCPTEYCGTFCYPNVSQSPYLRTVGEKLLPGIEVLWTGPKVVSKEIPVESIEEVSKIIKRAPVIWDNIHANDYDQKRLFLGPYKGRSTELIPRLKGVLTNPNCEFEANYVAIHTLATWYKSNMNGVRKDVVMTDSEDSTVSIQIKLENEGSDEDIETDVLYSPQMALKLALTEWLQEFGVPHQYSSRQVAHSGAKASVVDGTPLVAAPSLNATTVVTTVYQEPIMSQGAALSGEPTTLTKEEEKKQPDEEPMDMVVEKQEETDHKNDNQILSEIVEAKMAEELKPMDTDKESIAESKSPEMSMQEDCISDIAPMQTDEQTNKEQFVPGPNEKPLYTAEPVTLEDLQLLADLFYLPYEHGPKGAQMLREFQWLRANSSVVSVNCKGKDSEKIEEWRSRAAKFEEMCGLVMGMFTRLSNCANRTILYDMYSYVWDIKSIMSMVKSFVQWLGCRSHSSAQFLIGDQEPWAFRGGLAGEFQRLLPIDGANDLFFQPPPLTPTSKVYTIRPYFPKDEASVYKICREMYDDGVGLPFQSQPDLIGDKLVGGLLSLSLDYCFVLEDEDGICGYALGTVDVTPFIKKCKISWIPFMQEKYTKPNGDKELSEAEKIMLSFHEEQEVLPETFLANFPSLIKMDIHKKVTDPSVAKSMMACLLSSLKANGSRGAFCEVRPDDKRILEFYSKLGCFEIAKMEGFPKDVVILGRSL
Source text: The assay is based on the inhibition of the hydrolysis of fluorescein mono-B-D-N-Acetyl-Glucosamine (FM-GlcNAc) (Mariappa et al. 2015, Biochem J 470:255) by the recombinant human Meningioma Expressed Antigen 5 (MGEA5), also referred to as 0-GlcNAcase (OGA). The hydrolysis FM-GlcNAc (Marker Gene technologies, cat # M1485) results in the formation of β-D-N-glucosamineacetate and fluorescein. The fluorescence of the latter can be measured at excitation wavelength 485 nm and emission wavelength 538 nm. An increase in enzyme activity results in an increase in fluorescence signal. Full length OGA enzyme was purchased at OriGene (cat # TP322411). The enzyme was stored in 25 mM Tris.HCl, pH 7.3, 100 mM glycine, 10% glycerol at −20° C. Thiamet G and GlcNAcStatin were tested as reference compounds (Yuzwa et al. 2008 Nature Chemical Biology 4:483; Yuzwa et al. 2012 Nature Chemical Biology 8:393). The assay was performed in 200 mM Citrate/phosphate buffer supplemented with 0.005% Tween-20. 35.6 g Na2HPO4 2 H2O (Sigma, # C0759) were dissolved in 1 L water to obtain a 200 mM solution. 19.2 g citric acid (Merck, #1.06580) was dissolved in 1 L water to obtain a 100 mM solution. pH of the sodiumphosphate solution was adjusted with the citric acid solution to 7.2. The buffer to stop the reaction consists of a 500 mM Carbonate buffer, pH 11.0. 734 mg FM-GlcNAc were dissolved in 5.48 mL DMSO to obtain a 250 mM solution and was stored at −20° C. OGA was used at a 10 nM (protocol A) or 2 nM (protocol B) concentration and FM-GlcNAc at a 100 uM final concentration. Dilutions were prepared in assay buffer.
50 nl of a compound dissolved in DMSO was dispensed on Black Proxiplate™ 384 Plus Assay plates (Perkin Elmer, #6008269) and 3 μl fl-OGA enzyme mix added subsequently. Plates were pre-incubated for 60 min at room temperature and then 2 μl FM-GlcNAc substrate mix added. […] Plates were briefly centrifuged for 1 min at 1000 rpm and incubate at room temperature for 1 h (10 nM OGA, protocol A) or 6 h (2 nM OGA, protocol B). To stop the reaction 5 μl STOP buffer were added and plates centrifuge again 1 min at 1000 rpm. Fluorescence was quantified in the Thermo Scientific Fluoroskan Ascent or the PerkinElmer EnVision with excitation wavelength 485 nm and emission wavelength 538 nm.
For analysis a best-fit curve is fitted by a minimum sum of squares method. From this an IC50 value and Hill coefficient was obtained. High control (no inhibitor) and low control (saturating concentrations of standard inhibitor) were used to define the minimum and maximum values.

[3] = target: T2, OGA (Homo sapiens, UniProt O60502); assay: OGA cellular assay: ICC detection of O-GlcNAcylated proteins in HEK293 cells inducible for P301L mutant human Tau; format: cell-based; conditions: 6 hours incubation; for EC50: read-out: Cellular hOGA, pEC50 (converted)
T2 construct: endogenous in cells; host or cells: HEK293 cells inducible for P301L mutant human Tau (2N4R)
T2 sequence (O60502 1-916): T1 sequence (O60502 1-916)
Method: HEK293 cells inducible for P301L mutant human Tau (isoform 2N4R) were established at Janssen. Thiamet-G was used for both plate validation (high control) and as reference compound (reference EC50 assay validation). OGA inhibition is evaluated through the immunocytochemical (ICC) detection of O-GlcNAcylated proteins by the use of a monoclonal antibody (CTD110.6; Cell Signaling, #9875) detecting O-GlcNAcylated residues as previously described (Dorfmueller et al. 2010 Chemistry & biology, 17:1250).
Inhibition of OGA will result in an increase of 0-GlcNAcylated protein levels resulting in an increased signal in the experiment. Cell nuclei are stained with Hoechst to give a cell culture quality control and a rough estimate of immediate compounds toxicity, if any. ICC pictures are imaged with a Perkin Elmer Opera Phenix plate microscope and quantified with the provided software Perkin Elmer Harmony 4.1.
Cells were propagated in DMEM high Glucose (Sigma, #D5796) following standard procedures. 2 days before the cell assay cells are split, counted and seeded in Poly-D-Lysine (PDL) coated 96-wells (Greiner, #655946) plate at a cell density of 12,000 cells per cm^2 (4,000 cells per well) in 100 μl of Assay Medium (Low Glucose medium is used to reduce basal levels of GlcNAcylation) (Park et al. 2014 The Journal of biological chemistry 289:13519). At the day of compound test medium from assay plates was removed and replenished with 90 μl of fresh Assay Medium. 10 μl of compounds at a 10fold final concentration were added to the wells. Plates were centrifuged shortly before incubation in the cell incubator for 6 hours. DMSO concentration was set to 0.2%. Medium is discarded by applying vacuum. For staining of cells medium was removed and cells washed once with 100 μl D-PBS (Sigma, #D8537). From next step onwards unless other stated assay volume was always 50 μl and incubation was performed without agitation and at room temperature. Cells were fixed in 50 μl of a 4% paraformaldehyde (PFA, Alpha aesar, #043368) PBS solution for 15 minutes at room temperature. […] Before analysis samples were washed 2 times manually for 5 minutes in ICC base buffer.
Imaging is performed using Perkin Elmer Phenix Opera using a water 20× objective and recording 9 fields per well. Intensity readout at 488 nm is used as a measure of O-GlcNAcylation level of total proteins in wells. To assess potential toxicity of compounds nuclei were counted using the Hoechst staining. IC50-values are calculated using parametric non-linear regression model fitting. As a maximum inhibition Thiamet G at a 200 uM concentration is present on each plate. In addition, a concentration response of Thiamet G is calculated on each plate.

[4] = Enzymatic protocol A (10 nM OGA, 1 h)
[5] = Enzymatic protocol B (2 nM OGA, 6 h)

Chain of PDE2 (O00408 whole entry): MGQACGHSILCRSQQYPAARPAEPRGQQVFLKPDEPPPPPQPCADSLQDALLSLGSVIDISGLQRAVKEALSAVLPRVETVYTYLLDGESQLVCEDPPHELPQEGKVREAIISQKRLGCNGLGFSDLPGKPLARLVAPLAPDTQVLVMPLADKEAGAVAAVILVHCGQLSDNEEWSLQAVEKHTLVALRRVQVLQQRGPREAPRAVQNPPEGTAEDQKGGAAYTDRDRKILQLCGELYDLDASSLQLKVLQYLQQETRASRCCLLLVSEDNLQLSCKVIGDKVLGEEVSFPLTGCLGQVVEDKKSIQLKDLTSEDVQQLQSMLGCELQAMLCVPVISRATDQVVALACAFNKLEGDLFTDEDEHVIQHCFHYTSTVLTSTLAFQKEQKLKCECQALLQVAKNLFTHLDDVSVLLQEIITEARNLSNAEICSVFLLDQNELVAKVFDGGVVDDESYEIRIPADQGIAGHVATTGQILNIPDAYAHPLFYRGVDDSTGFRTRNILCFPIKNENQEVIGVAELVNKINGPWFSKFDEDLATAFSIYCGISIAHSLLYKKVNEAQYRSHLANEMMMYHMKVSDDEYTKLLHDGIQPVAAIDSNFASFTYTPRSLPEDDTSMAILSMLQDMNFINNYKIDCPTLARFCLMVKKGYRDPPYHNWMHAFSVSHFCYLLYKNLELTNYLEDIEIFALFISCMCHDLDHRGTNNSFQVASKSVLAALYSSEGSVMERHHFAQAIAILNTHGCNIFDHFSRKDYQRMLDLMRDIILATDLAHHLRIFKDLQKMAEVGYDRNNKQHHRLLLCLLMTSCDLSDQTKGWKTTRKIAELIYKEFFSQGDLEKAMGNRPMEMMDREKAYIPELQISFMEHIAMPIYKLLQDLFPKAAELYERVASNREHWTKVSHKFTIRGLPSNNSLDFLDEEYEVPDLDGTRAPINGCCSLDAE

| Structure (SMILES) | inhibition at 10 µM [1] | Emax [2, 4] | IC50 [2, 4] | melting point | Emax [3] | EC50 [3] | Enzymatic Emax (%) [2, 4] | Emax [2, 5] | IC50 [2, 5] |
| --- | --- | --- | --- | --- | --- | --- | --- | --- | --- |
| CC(=O)Nc1ncc(S(=O)(=O)N2CCCC(c3cc4ncccc4[nH]3)C2)s1 (stereo not shown) [Compound 2] | 33.1% | 102% | 263 nM |  |  |  |  |  |  |
| CC(=O)Nc1ncc(CN2CCCC(c3nc4ncccc4[nH]3)C2)s1 (single isomer, unassigned) [Compound 19] |  |  | 148 nM | 228.2 °C | 109% | 851 nM | 102% |  |  |
| O=C(CN1CCCC(c2cc3ncccc3[nH]2)C1)N1CCCC1 (stereo not shown) [Compound 49] |  |  |  | 179.9 °C | 7.2% | > 10000 nM |  | 80.5% | 2630 nM |
| CC(=O)Nc1ncc(CN2CCCC(c3nc4ncccc4[nH]3)C2)s1 (single isomer, unassigned) [Compound 18] |  |  | 24500 nM | 223.94 °C |  |  | 55.6% |  |  |
| CCC(=O)Nc1ncc(CN2CCCC(c3cc4ncccc4[nH]3)C2)s1 (stereo not shown) [Compound 9] |  | 98% | 204 nM | 235 °C |  |  |  |  |  |

Source: patent US20190359609A1, “BICYCLIC OGA INHIBITOR COMPOUNDS” (Janssen Pharmaceutica NV, priority 2016, published 2019)
